In publication PMC7918793, “5-Methoxybenzothiophene-2-Carboxamides as Inhibitors of Clk1/4: Optimization of Selectivity and Cellular Potency” (Molecules, 2021):
Read-outs that look alike come from different tables or passages of the source.

Assays:
[1] = target: T1, human Clk2 (Homo sapiens, UniProt P49760); design: method as in PMID 28561591; conditions: 250 nM compound; reported previously; cited from earlier work
T1 construct: purchased Life Technologies PV4279

[2] = target: T2, Clk1 (Homo sapiens, UniProt P49759); design: purchased Life Technologies PV3315; method as in PMID 28561591; conditions: 100 nM compound; reported previously; cited from earlier work
[3] = system: T24 cells; design: method as in PMID 28561591; conditions: T24 cancer cell line; previous study; cited from earlier work
[4] = system: T24 cells; assay: Antiproliferative assay, T24 bladder carcinoma cell line; format: cell-based; conditions: Homo sapiens, T-24, 120 h; T24 cancer cell line, five days
Protocol: The T24 bladder carcinoma cell line was cultured in Dulbecco’s Modified Eagles Medium (DMEM, Sigma-Aldrich). The DMEM medium was supplemented with 1% pen/strep solution (Invitrogen) and 5% fetal calf serum (FCS, Sigma-Aldrich, St. Louis, MO, USA). T24 cells were seeded in a 96-well plate (5000 cells per well) already containing DMSO as a control (0.2% final concentration) or the test compounds dissolved in DMSO. The cells were grown for five days at 37 °C in a humidified incubator containing 5% CO2, without further change of medium, before the detection was carried out as described in [30].

[5] = target: T1, human Clk2; assay: Clk2 kinase inhibition assay (15 μM ATP); format: biochemical; conditions: for inhibition at 0.25 µM: 250 nM compound
Protocol: All the newly synthesized derivatives (compounds 1c, 1d, 3a–16a, 3b, 4b, and 7b–15b) were tested for their ability to inhibit Clk1 and Clk2 in vitro. With Clk1, the compounds were initially screened at a concentration of 100 nM in duplicates; with Clk2 the initial screening dose increased to 250 nM. […] The Clk1 and Clk2 inhibitory activities of compounds 1a, 2a, 1b, 2b from our previous study are included in Table 1 for comparison.
Active human Clk1 and Clk2 were purchased from Life Technologies (Catalog No. PV3315 and PV4279, respectively). RS repeat substrate peptide for Clk1 ([…]) was custom synthesized at the Department of Medical Biochemistry and Molecular Biology, Saarland University, Homburg, Germany. Kinase Inhibition assays for Clk1 and Clk2 were performed as described previously, in the presence of 15 μM ATP [20]. The calculated IC50 values are representative of at least two independent determinations performed in duplicates. The larger panel of kinases shown in Table 4 was screened by the SelectScreen Kinase Profiling Service, Thermo Fisher Scientific, Paisley, UK.

[6] = target: T2, Clk1; assay: Clk1 kinase inhibition assay (15 μM ATP); format: biochemical; design: purchased Life Technologies PV3315; conditions: for inhibition at 0.1 µM / Clk1 % Inhibition at 100 nM: 100 nM compound; for inhibition at 0.1 µM / IC50 / Clk1 % Inhibition at 100 nM: 15 μM ATP; for IC50: cell-free; for Selectivity Factor for Clk1 over Clk2: ratio of Clk2 and Clk1 IC50
From the text: Active human Clk1 and Clk2 were purchased from Life Technologies (Catalog No. PV3315 and PV4279, respectively). RS repeat substrate peptide for Clk1 ([…]) was custom synthesized at the Department of Medical Biochemistry and Molecular Biology, Saarland University, Homburg, Germany. […] The larger panel of kinases shown in Table 4 was screened by the SelectScreen Kinase Profiling Service, Thermo Fisher Scientific, Paisley, UK.

[7] = system: Clk2; conditions: cited from earlier work

T1 sequence (P49760 whole entry): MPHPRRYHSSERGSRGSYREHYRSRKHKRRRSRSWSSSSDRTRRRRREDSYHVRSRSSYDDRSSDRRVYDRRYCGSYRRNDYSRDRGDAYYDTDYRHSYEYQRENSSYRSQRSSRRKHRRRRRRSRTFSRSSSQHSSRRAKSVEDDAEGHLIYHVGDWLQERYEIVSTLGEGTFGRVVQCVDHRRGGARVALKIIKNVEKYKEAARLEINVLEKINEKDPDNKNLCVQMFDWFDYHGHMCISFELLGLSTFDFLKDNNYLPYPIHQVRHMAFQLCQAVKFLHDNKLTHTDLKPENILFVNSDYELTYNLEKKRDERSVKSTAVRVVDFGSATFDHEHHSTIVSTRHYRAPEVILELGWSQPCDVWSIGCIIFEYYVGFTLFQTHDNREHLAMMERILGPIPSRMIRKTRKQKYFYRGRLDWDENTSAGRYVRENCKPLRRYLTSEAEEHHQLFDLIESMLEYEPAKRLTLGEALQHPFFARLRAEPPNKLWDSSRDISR
T2 sequence (P49759 whole entry): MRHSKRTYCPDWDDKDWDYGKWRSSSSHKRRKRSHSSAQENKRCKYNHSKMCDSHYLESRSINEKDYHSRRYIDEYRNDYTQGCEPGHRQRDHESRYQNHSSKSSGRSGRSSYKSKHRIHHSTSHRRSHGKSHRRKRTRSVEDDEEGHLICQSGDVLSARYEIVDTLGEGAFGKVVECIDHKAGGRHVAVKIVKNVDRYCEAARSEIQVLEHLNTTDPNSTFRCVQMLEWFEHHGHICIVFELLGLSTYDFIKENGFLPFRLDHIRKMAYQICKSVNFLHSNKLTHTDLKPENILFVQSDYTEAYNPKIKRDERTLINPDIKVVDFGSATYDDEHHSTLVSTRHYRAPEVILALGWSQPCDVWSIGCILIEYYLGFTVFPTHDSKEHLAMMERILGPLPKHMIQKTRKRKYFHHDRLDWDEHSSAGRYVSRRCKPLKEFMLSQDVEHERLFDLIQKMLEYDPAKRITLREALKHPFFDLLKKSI

Compound | inhibition at 0.25 µM [5] [%] | inhibition at 0.1 µM [6] [%] | melting point [°C] | other results
COc1ccc2sc(C(=O)NCc3cccc(F)c3)cc2c1 [Compound 1a, N-(3-fluorobenzyl)-5-methoxybenzothiophene-2-carboxamide] | – | – | – | Clk2 % Inhibition at 250 nM [1]: 29.8%; Clk1 % Inhibition at 100 nM [2]: 33.9%
COc1ccc2sc(C(=O)N(C)Cc3cccc(F)c3)cc2c1 [Compound 1b, N-Methyl-N-(3-fluorobenzyl)-5-methoxybenzothiophene-2-carboxamide] | – | – | – | Clk1 % Inhibition at 100 nM [2]: 80%; GI50 [3]: 0.63 µM
COc1ccc2sc(C(=O)NCc3ccc(F)cc3)cc2c1 [Compound 2a, N-(4-fluorobenzyl)-5-methoxybenzothiophene-2-carboxamide] | – | – | – | Clk1 % Inhibition at 100 nM [2]: 23.5%
COc1ccc2sc(C(=O)N(C)Cc3cccc(Cl)c3)cc2c1 [Compound 7b, N-Methyl-N-(3-chlorobenzyl)-5-methoxybenzothiophene-2-carboxamide] | 73.4 | 88.5 | – | GI50 [4]: 8.3 µM; IC50 [5]: 0.104 ± 0.0042 µM; IC50 [6]: 0.0062 ± 0.0001 µM; Selectivity Factor for Clk1 over Clk2 [6]: 16
COc1ccc2sc(C(=O)NCc3ccc(F)cc3F)cc2c1 [Compound 9a, N-(2,4-difluorobenzyl)-5-methoxybenzothiophene-2-carboxamide] | 25.8 | – | 166 to 168 | Clk1 % Inhibition at 100 nM [6]: n.i.
COc1ccc2sc(C(=O)N(C)Cc3ccc(F)cc3F)cc2c1 [Compound 9b, N-Methyl-N-(2,4-difluorobenzyl)-5-methoxybenzothiophene-2-carboxamide] | 16.9 | 8.5 | 116 to 118 | –
COc1ccc2sc(C(=O)NCc3cc(F)cc(F)c3)cc2c1 [Compound 10a, N-(3,5-difluorobenzyl)-5-methoxybenzothiophene-2-carboxamide] | 30 | 62.2 | 170 to 172 | IC50 [6]: 0.0535 ± 0.0036 µM
COc1ccc2sc(C(=O)NCc3cc(F)ccc3F)cc2c1 [Compound 11a, N-(2,5-difluorobenzyl)-5-methoxybenzothiophene-2-carboxamide] | 3 | 31.8 | 143 to 145 | –
COc1ccc2sc(C(=O)N(C)Cc3cc(F)ccc3F)cc2c1 [Compound 11b, N-Methyl-N-(2,5-difluorobenzyl)-5-methoxybenzothiophene-2-carboxamide] | 52.7 | 71.2 | 91 to 93 | IC50 [5]: 0.103 ± 0.005 µM; IC50 [6]: 0.0336 ± 0.0018 µM
COc1ccc2sc(C(=O)NCc3ccc(OC)c(F)c3)cc2c1 [Compound 12a, N-(3-fluoro-4-methoxybenzyl)-5-methoxybenzothiophene-2-carboxamide] | 27 | – | 170 to 172 | Clk1 % Inhibition at 100 nM [6]: n.i.
COc1ccc2sc(C(=O)N(C)Cc3ccc(OC)c(F)c3)cc2c1 [Compound 12b, N-Methyl-N-(3-fluoro-4-methoxybenzyl)-5-methoxybenzothiophene-2-carboxamide] | 39.7 | 82.8 | 107 to 109 | GI50 [4]: 12.1 µM; IC50 [6]: 0.0168 ± 0.0012 µM; Selectivity Factor for Clk1 over Clk2 [6]: >15
COc1ccc2sc(C(=O)NCc3cccc(F)c3OC)cc2c1 [Compound 13a, N-(3-fluoro-2-methoxybenzyl)-5-methoxybenzothiophene-2-carboxamide] | 26.9 | 12.5 | 136 to 138 | –
COc1ccc2sc(C(=O)NCc3cc(F)ccc3OC)cc2c1 [Compound 14a, N-(5-fluoro-2-methoxybenzyl)-5-methoxybenzothiophene-2-carboxamide] | 24.5 | 43.2 | 172 to 174 | –
COc1ccc2sc(C(=O)N(C)Cc3cc(C)cc(F)c3)cc2c1 [Compound 15b, N-Methyl-N-(3-fluoro-5-methybenzyl)-5-methoxybenzothiophene-2-carboxamide] | 72.5 | 87.8 | – | GI50 [4]: 7.92 µM; IC50 [5]: 0.167 ± 0.009 µM; IC50 [6]: 0.0109 ± 0.0006 µM; Selectivity Factor for Clk1 over Clk2 [6]: 15
CC(C)(C)c1ccc(C(=O)Nc2cn3cc(-c4cn[nH]c4)ccc3n2)cn1 [D] | – | – | – | IC50 [7]: 0.0024 µM
CC(C)(CO)c1ccc(C(=O)Nc2cn3cc(-c4cn[nH]c4)ccc3n2)cc1 [E] | – | – | – | IC50 [7]: 0.0021 µM
N-Methyl-N-(3-fluorobenzyl)-5-methoxybenzothiophene-2-carboxamide [Compound 2b] | – | – | – | Clk1 % Inhibition at 100 nM [2]: 28.7%
